Measurements published in BigSolDB 2.1.

Settings: in n-octanol

| solubility (mole fraction) (293.15 K) | solubility (mole fraction) (298.15 K) | solubility (mole fraction) (303.15 K) | solubility (mole fraction) (308.15 K) | solubility (mole fraction) (313.15 K) | solubility (mole fraction) (318.15 K) | solubility (mole fraction) (323.15 K) | solubility (mole fraction) (328.15 K) | solubility (mole fraction) (333.15 K) | SMILES |
| --- | --- | --- | --- | --- | --- | --- | --- | --- | --- |
| 5.17e-05 | 6.62e-05 | 8.54e-05 | 0.000108 | 0.00014 | 0.000177 | 0.000224 | 0.000284 | 0.000352 | CCn1cc(C(=O)O)c(=O)c2cc(F)c(N3CCNCC3)cc21 |
| 2.17e-06 | 2.76e-06 | 3.55e-06 | 4.58e-06 | 5.88e-06 | 7.63e-06 | 9.91e-06 | 1.3e-05 | 1.68e-05 | CCn1cc(C(=O)O)c(=O)c2cc(F)c(N3CCNC(C)C3)c(F)c21 (configuration not stated) |
| 9.14e-07 | 1.2e-06 | 1.57e-06 | 2.03e-06 | 2.6e-06 | 3.25e-06 | 4.05e-06 | 4.97e-06 | 6.02e-06 | CCn1cc(C(=O)O)c(=O)c2cnc(N3CCNCC3)nc21 |
